Laboratory results published in patent US20250177338A1 (URIACH ITALY S.R.L., priority 2022, published 2025).

Key:
[1] = system: ERK/MAPK; conditions: liver level; NAC 12 mM, VitD 100 nM, G 5 mM, LA 50 μM
Procedure: Human epithelial cells (HepG2) were purchased from ATCC, and cultured in DMEM supplemented with 10% FBS, L-glutamine 2 mM and 1% penicillin-streptomycin, at 37° C., 5% CO2. […] ERK/MAPK activity was measured by InstantOne™ ELISA (Thermo Fisher) on cell lysates following the manufacturer's instructions. The strips were measured by a spectrometer (VICTOR X4, multiwell plate reader) at 450 nm. Results were expressed as mean absorbance (%) compared with control.

[2] = system: GTL-16 cell line; conditions: pre-digested model, 2, 3, 4 and 6 hours; NAC 12 mM, VitD 100 nM, G 5 mM
Procedure: The GTL-16 cell line, donated by the Laboratory of Histology, University of Eastern Piedmont (Italy), is a clonal line derived from a poorly differentiated gastric carcinoma cell line widely used as a model of gastric epithelial cells. Cells were cultured in Dulbecco's Modified Eagle medium (DMEM, Merck Life Science, Rome, Italy) supplemented with 10% fetal bovine serum (Fetal Bovine Serum, FBS), 1% penicillin-streptomycin, in an incubator at 37° C., 5% CO2. 1×10^4 cells were used to explore cell viability by MTT.
At the end of stimulation, cells were incubated with 1% MTT dye for 2 h at 37° C. in an incubator, 5% CO2 and 95% humidity, and then purple formazan crystals were dissolved in an equal volume of MTT solubilization solution.

[3] = system: HepG2; assay: Hepatic absorption test; assay type: in vitro ADME, Human; conditions: NAC 12 mM, VitD 100 nM, G 5 mM, LA 50 μM
Procedure: Human epithelial cells (HepG2) were purchased from ATCC, and cultured in DMEM supplemented with 10% FBS, L-glutamine 2 mM and 1% penicillin-streptomycin, at 37° C., 5% CO2.

[4] = system: NSC-34/IFRS1 co-culture; assay: Mitochondrial metabolism at Peripheral Nervous System level; assay type: cell-based, rat; conditions: added to NAC 12 mM, VitD 100 nM, G 5 mM
Procedure: In order to recreate a peripheral nervous system in vitro, a myelinating co-culture system was used with an NSC-34 motor neuron-like cell line and an IFRS1 adult rat Schwann cell line according to a protocol reported in the literature. IFRS1 cells were seeded on 100-mm plastic discs (Greiner Bio-One GmbH, Frickenhausen, Germany, 664-160-013) at an approximate density of 2×10^4/cm^2 and maintained in DMEM containing 5% FBS, recombinant human eregulin-β (EMD Millipore, Billerica, MA, USA) 20 ng/mL, forskolin (Sigma, St. Louis, MO, USA) 5 μM and antifungal antibiotic solution (penicillin 100 U/mL, streptomycin 100 μg/mL and amphotericin 250 ng/mL; Sigma). NSC-34 cells were seeded on 100-mm plastic discs at an approximate density of 1×10^4/cm^2 and maintained in DMEM containing antibiotic antifungal solution and 5% FBS. At semi-confluence, cells were detached from the discs using 0.05% trypsin/EDTA 0.53 mM solution, suspended in DMEM/F12 Ham containing 5% FBS in a 50 mL polypropylene conical tube, and reseeded on Aclar fluorocarbon coverslips coated with poly-L-lysine/laminine, 12-well culture plates coated with type I collagen, and 2-well glass chamber slides coated with type I collagen at an approximate density of 2×10^3/cm^2. […]

Molecule | ERK activity [1] | cell viability [2] | hepatic absorption [3] | mitochondrial activity [4]
N[C@@H](CCC(=O)N[C@@H](CS)C(=O)NCC(=O)O)C(=O)O [glutathione, (2S)-2-amino-5-[[(2R)-1-(carboxymethylamino)-1-oxo-3-sulfanylpropan-2-yl]amino]-5-oxopentanoic acid] | further enhances the conservation of these biological activities | contributes to increased cell viability | further increases hepatic absorption | –
Vitamin D [VitD] | – | – | – | contributes to increased mitochondrial activity
